Experimental data: ChEMBL document CHEMBL5543083, “3,5-Disubstituted-thiazolidine-2,4-dione hybrids as antidiabetic agents: Design, synthesis, in-vitro and In vivo evaluation” (Eur J Med Chem, 2024)
The source made the active and inactive calls. No cut-off for these calls is given here.

Tests used:
Rattus norvegicus [1] = assay: Antidiabetic activity against streptozotocin-induced Wistar rat assessed as increase in serum amylase level at 10 mg/kg, po measured upto 35 days by ELISA analysis; format: functional, organism-based; conditions: time <= 35.0 day
[2] = Toxicity in streptozotocin-induced Wistar rat assessed as morphological changes in pancrease at 10 mg/kg, po measured up to 35 days; format: organism-based; conditions: in vivo, 840 h, time < 35 day
Rattus norvegicus [3] = assay: Antidiabetic activity against streptozotocin-induced Wistar rat assessed as decrease in triglyceride level at 10 mg/kg, po measured upto 35 days; format: functional, organism-based; conditions: time <= 35.0 day
Rattus norvegicus [4] = assay: Antidiabetic activity against streptozotocin-induced Wistar rat assessed as decrease in SOD level at 10 mg/kg, po measured upto 35 days; format: functional, organism-based; conditions: time <= 35.0 day
Alpha-glucosidase = Alpha-glucosidase (Saccharomyces cerevisiae S288c, UniProt P53341+P38158+P07265); assay: Inhibition of yeast Alpha glucosidase 4-nitrophenyl-alpha-D-glucopyranoside incubated for 15 to 20 mins by Bio-rad microplate reader analysis; format: protein assay
Rattus norvegicus [5] = assay: Antidiabetic activity against streptozotocin-induced Wistar rat assessed as decrease in HDL level at 10 mg/kg, po measured upto 35 days; format: functional, organism-based; conditions: time <= 35.0 day
[6] = Toxicity in streptozotocin-induced Wistar rat assessed as decrease in eosinophil count at 10 mg/kg, po measured up to 35 days; format: organism-based; conditions: in vivo, 840 h, time < 35 day
Rattus norvegicus [7] = assay: Antidiabetic activity against Wistar rat assessed as effect on glutathione level at 10 mg/kg, po measured upto 35 days; format: functional, organism-based; conditions: time <= 35.0 day
Rattus norvegicus [8] = assay: Antidiabetic activity against streptozotocin-induced Wistar rat assessed as decrease in MDA level at 10 mg/kg, po measured upto 35 days; format: functional, organism-based; conditions: time <= 35.0 day
Rattus norvegicus [9] = assay: Antidiabetic activity against streptozotocin-induced Wistar rat assessed as change in blood urea nitrogen level at 10 mg/kg, po measured upto 35 days; format: functional, organism-based; conditions: time <= 35.0 day
Rattus norvegicus [10] = assay: Antidiabetic activity against streptozotocin-induced Wistar rat assessed as increase in IL1-beta level in Pancreas at 10 mg/kg, po measured upto 35 days; format: functional, organism-based; conditions: time <= 35.0 day
Rattus norvegicus [11] = assay: Antidiabetic activity against streptozotocin-induced Wistar rat assessed as decrease in blood glucose level at 10 mg/kg, po measured at 30 mins by oral glucose test; format: functional, organism-based
Rattus norvegicus [12] = assay: Antidiabetic activity against streptozotocin-induced Wistar rat assessed as effect on blood glucose level at 10 mg/kg, po measured on day 1; format: functional, organism-based; conditions: time 1.0 day
Rattus norvegicus [13] = assay: Antidiabetic activity against streptozotocin-induced Wistar rat assessed as increase in serum ALP level at 10 mg/kg, po measured upto 35 days; format: functional, organism-based; conditions: time <= 35.0 day
Rattus norvegicus [14] = assay: Antidiabetic activity against streptozotocin-induced Wistar rat assessed as effect on glutathione level at 10 mg/kg, po measured upto 35 days; format: functional, organism-based; conditions: time <= 35.0 day
Rattus norvegicus [15] = assay: Antidiabetic activity against Wistar rat assessed as decrease in total cholesterol level at 10 mg/kg, po measured upto 35 days; format: functional, organism-based; conditions: time <= 35.0 day
Rattus norvegicus [16] = assay: Antidiabetic activity against streptozotocin-induced Wistar rat assessed as increase in TNF-alpha level in Pancreas at 10 mg/kg, po measured upto 35 days; format: functional, organism-based; conditions: time <= 35.0 day
Rattus norvegicus [17] = assay: Antidiabetic activity against Wistar rat assessed as increase in serum creatine level at 10 mg/kg, po measured upto 35 days; format: functional, organism-based; conditions: time <= 35.0 day
[18] = Toxicity in streptozotocin-induced Wistar rat assessed as decrease in dilation of renal tubules in kidney at 10 mg/kg, po measured up to 35 days; format: organism-based; conditions: in vivo, 840 h, time < 35 day
Rattus norvegicus [19] = assay: Antidiabetic activity against streptozotocin-induced Wistar rat assessed as effect on blood glucose level at 10 mg/kg, po measured on day 4; format: functional, organism-based; conditions: time 4.0 day
Rattus norvegicus [20] = assay: Antidiabetic activity against streptozotocin-induced Wistar rat assessed as increase in PPAR-gamma level at 10 mg/kg, po measured upto 35 days by ELISA analysis; format: functional, organism-based; conditions: time <= 35.0 day
[21] = Toxicity in streptozotocin-induced Wistar rat assessed as decrease in basophil count at 10 mg/kg, po measured up to 35 days; format: organism-based; conditions: in vivo, 840 h, time < 35 day
PANC-1 [22] = assay: Cytotoxicity against human PANC-1 cells assessed as inhibition of cell growth; format: functional, cell-based; conditions: Homo sapiens, PANC-1; read-out: IC50
[23] = Toxicity in streptozotocin-induced Wistar rat assessed as morphological changes in liver at 10 mg/kg, po measured up to 35 days; format: organism-based; conditions: in vivo, 840 h, time < 35 day
[24] = Toxicity in streptozotocin-induced Wistar rat assessed as changes in organ to body weight ratio at 10 mg/kg, po measured up to 35 days; format: organism-based; conditions: in vivo, 840 h, time < 35 day
[25] = Toxicity in streptozotocin-induced Wistar rat assessed as morphological changes in kidney at 10 mg/kg, po measured up to 35 days; format: organism-based; conditions: in vivo, 840 h, time < 35 day
[26] = Toxicity in Wistar rat assessed as decrease in body weight at 10 mg/kg, po measured on day 14; format: organism-based; conditions: in vivo, 336 h, time 14 day
[27] = Toxicity in Wistar rat assessed as decrease in body weight at 10 mg/kg, po measured on day 35; format: organism-based; conditions: in vivo, 840 h, time 35 day
PANC-1 [28] = assay: Induction of ROS production in high glucose-induced human PANC-1 cells assessed as maximum fluorescence intensity at 10 uM incubated for 30 mins DCFDA-staining based flow cytometry analysis (reference value: 15.09); format: functional; conditions: 0.5 h
Rattus norvegicus [29] = assay: Antidiabetic activity against streptozotocin-induced Wistar rat assessed as change in serum SGPT level at 10 mg/kg, po measured upto 35 days; format: functional, organism-based; conditions: time <= 35.0 day
[30] = Toxicity in streptozotocin-induced Wistar rat assessed as decrease in tubular necrosis in kidney at 10 mg/kg, po measured up to 35 days; format: organism-based; conditions: in vivo, 840 h, time < 35 day
Alpha-amylase = molecular target: T1, Alpha-amylase (Sus scrofa domesticus, UniProt Q7M328); assay: Inhibition of porcine pancreatic Alpha-amylase using starch as substrate preincubated for 10 mins followed by substrate addition and measured after 15 mins by Bio-rad microplate reader analysis; conditions: read-out: IC50
T1 sequence (Q7M328 whole entry): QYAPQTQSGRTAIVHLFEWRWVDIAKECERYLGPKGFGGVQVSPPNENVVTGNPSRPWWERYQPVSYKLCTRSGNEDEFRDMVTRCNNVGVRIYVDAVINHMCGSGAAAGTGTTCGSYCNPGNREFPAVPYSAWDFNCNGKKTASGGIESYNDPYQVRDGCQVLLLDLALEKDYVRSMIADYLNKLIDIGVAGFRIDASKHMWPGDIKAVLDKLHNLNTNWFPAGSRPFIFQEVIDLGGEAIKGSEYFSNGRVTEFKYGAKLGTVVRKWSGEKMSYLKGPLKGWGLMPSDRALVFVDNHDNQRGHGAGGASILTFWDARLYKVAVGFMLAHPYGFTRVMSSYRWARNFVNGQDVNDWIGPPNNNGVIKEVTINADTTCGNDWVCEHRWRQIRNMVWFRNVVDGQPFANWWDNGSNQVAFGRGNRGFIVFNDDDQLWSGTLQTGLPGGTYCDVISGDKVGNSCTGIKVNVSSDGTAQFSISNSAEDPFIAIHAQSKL

Rattus norvegicus [31] = assay: Antidiabetic activity against streptozotocin-induced Wistar rat assessed as change in serum SGOT level at 10 mg/kg, po measured upto 35 days; format: functional, organism-based; conditions: time <= 35.0 day
Rattus norvegicus [32] = assay: Antidiabetic activity against streptozotocin-induced Wistar rat assessed as decrease in blood glucose level at 10 mg/kg, po measured at 60 mins by oral glucose test; format: functional, organism-based
[33] = Toxicity in streptozotocin-induced Wistar rat assessed as change in blood lymphocyte count at 10 mg/kg, po measured up to 35 days; format: organism-based; conditions: in vivo, 840 h, time < 35 day
[34] = Antioxidant activity assessed as DPPH radical scavenging activity measured for 30 mins by spectrophotometric analysis; format: functional; conditions: read-out: IC50
Rattus norvegicus [35] = assay: Antidiabetic activity against streptozotocin-induced Wistar rat assessed as effect on serum catalase level at 10 mg/kg, po measured upto 35 days; format: functional, organism-based; conditions: time <= 35.0 day
Rattus norvegicus [36] = assay: Antidiabetic activity against streptozotocin-induced Wistar rat assessed as increase in serum creatine level at 10 mg/kg, po measured upto 35 days; format: functional, organism-based; conditions: time <= 35.0 day
Rattus norvegicus [37] = assay: Antidiabetic activity against streptozotocin-induced Wistar rat assessed as change in uric acid level at 10 mg/kg, po measured upto 35 days; format: functional, organism-based; conditions: time <= 35.0 day
Rattus norvegicus [38] = assay: Antidiabetic activity against streptozotocin-induced Wistar rat assessed as change in BUN level at 10 mg/kg, po measured upto 35 days; format: functional, organism-based; conditions: time <= 35.0 day
[39] = Toxicity in streptozotocin-induced Wistar rat assessed as decrease in glomeruli shrinkage in kidney at 10 mg/kg, po measured up to 35 days; format: organism-based; conditions: in vivo, 840 h, time < 35 day

Row | Compound | Activity [2] | Activity (Rattus norvegicus [3]) | Activity (Rattus norvegicus [4]) | IC50 (Alpha-glucosidase) [µM] | Activity (Rattus norvegicus [5]) | Activity (Rattus norvegicus [7]) | Activity (Rattus norvegicus [8]) | Activity (Rattus norvegicus [10]) | Activity (Rattus norvegicus [11]) | Activity (Rattus norvegicus [12]) | Activity (Rattus norvegicus [13]) | Activity (Rattus norvegicus [16]) | Activity (Rattus norvegicus [19]) | Activity (Rattus norvegicus [20]) | IC50 (PANC-1 [22]) [µM] | Activity [23] | Activity [26] | Activity [27] | Flu intensity (PANC-1 [28]) | Activity (Rattus norvegicus [29]) | other results
1 | CCOc1cc(/C=C2\SC(=O)N(Cc3cccc([N+](=O)[O-])c3)C2=O)ccc1O | Non-Toxic | Active | Active | 10.33 | Active | Active | Active | Active | Active | Active | Active | Active | Active | Active | 207 | Non-Toxic | Non-Toxic | Toxic | 1324 | Active | Activity (Rattus norvegicus [1]): Active; Activity [6]: Non-Toxic; Activity (Rattus norvegicus [9]): Active; Activity (Rattus norvegicus [14]): inactive; Activity (Rattus norvegicus [15]): Active; Activity (Rattus norvegicus [17]): Active; Activity [18]: Non-Toxic; Activity [21]: Non-Toxic; Activity [24]: Non-Toxic; Activity [25]: Non-Toxic; Activity [30]: Non-Toxic; IC50 (Alpha-amylase): 10.2 µM; Activity (Rattus norvegicus [31]): Active; Activity (Rattus norvegicus [32]): Active; Activity [33]: Non-Toxic; IC50 [34]: 14.9 µM
2 | O=C1S/C(=C\c2ccc(Cl)cc2Cl)C(=O)N1Cc1cccc([N+](=O)[O-])c1 | Non-Toxic |  |  | 20.94 |  |  |  | Active | Active | Active | Active | Active | Active |  | 152 | Non-Toxic | Non-Toxic |  | 1474 | inactive | Activity (Rattus norvegicus [1]): Active; Activity (Rattus norvegicus [35]): Active; Activity (Rattus norvegicus [36]): Active; Activity (Rattus norvegicus [37]): Active; IC50 (Alpha-amylase): 24.1 µM; Activity (Rattus norvegicus [31]): inactive; Activity (Rattus norvegicus [32]): Active; IC50 [34]: 23.2 µM
3 | O=C1S/C(=C\c2ccc(Br)cc2)C(=O)N1Cc1cccc([N+](=O)[O-])c1 | Non-Toxic | Active | Active | 20.02 | Active | Active | Active | Active |  | Active | Active | Active | Active | Active | 62.2 |  | Non-Toxic | Toxic | 1514 | Active | Activity (Rattus norvegicus [38]): Active; Activity [6]: Non-Toxic; Activity [39]: Non-Toxic; Activity (Rattus norvegicus [9]): Active; Activity (Rattus norvegicus [14]): inactive; Activity (Rattus norvegicus [15]): Active; Activity (Rattus norvegicus [17]): Active; Activity [18]: Non-Toxic; Activity [21]: Non-Toxic; Activity [24]: Non-Toxic; Activity [25]: Non-Toxic; Activity [30]: Non-Toxic; IC50 (Alpha-amylase): 23.9 µM; Activity (Rattus norvegicus [31]): Active; Activity (Rattus norvegicus [32]): Active; Activity [33]: Non-Toxic; IC50 [34]: 23.3 µM
4 | CCc1ccc(CCOc2ccc(CC3SC(=O)NC3=O)cc2)nc1 (stereo not drawn) [PIOGLITAZONE] |  | Active | Active |  | Active | Active | Active | Active | Active | Active | Active |  | Active | Active |  | Non-Toxic | Non-Toxic | Toxic |  |  | Activity [39]: Toxic; Activity [33]: Non-Toxic
